Assay in all cases: NCI tumour cell line growth inhibition, 48 h
Experiment [1] deals with MCF7 breast.
In experiment [2] the test system is SR leukemia.
The test system of experiment [3] is OVCAR-3 ovarian.
The subject of experiment [4] is MDA-MB-231 breast.
For experiment [5], the system named is SNB-19 CNS.
Experiment [6] relates to SF-295 CNS.
Experiment [7] concerns IGROV1 ovarian.
Experiment [8] deals with CCRF-CEM leukemia.
For experiment [9], the system named is MDA-N.
For experiment [10], the system named is HS 578T breast.
Experiment [11] has as its system SW-620 colon.
For experiment [12], the system named is NCI-H522 lung.
Experiment [13] deals with LOX IMVI melanoma.
Experiment [14] relates to OVCAR-4 ovarian.
Experiment [15] deals with K-562 leukemia.

Structures are written as SMILES.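 48-hour exposure; five concentrations; linearly interpolated endpoints. TGI is the concentration that stops growth completely.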

Consider `O=C1OCC2OC(=O)c3cc(O)c(O)c(O)c3-c3c(O)c(O)c(O)c4c3C(=O)OC(C2OC(=O)c2cc(O)c(O)c(O)c2-c2c1cc(O)c(O)c2O)C1OC(=O)c2c-4c(O)c(O)c(O)c2[C@@H]1C(O)C(O)C(O)C(O)CO` (stereo not given in full), for which the TGI in [1] was 17.6 µM; in [2], greater than 100 µM; in [3] it was 80.6 µM; in experiment [4], 30.5 µM; in experiment [5], greater than 100 µM; in experiment [6], 43.7 µM. The TGI in experiment [7] came to 40.6 µM; in experiment [8], 23.7 µM; in [9] it was 25.5 µM; in [10], 70.3 µM; in [11], 44.5 µM; in [12] it was 39.7 µM. Further, the TGI was found to be 6.04 µM in experiment [13], 41 µM in experiment [14] and 33.3 µM in experiment [15].
Regarding `CC(C)(C)c1cc2c(OC/C=C/c3ccccc3)c(c1)Cc1cc(C(C#N)(OC/C=C/c3ccccc3)OC/C=C/c3ccccc3)cc(c1OC/C=C\c1ccccc1)Cc1cc(C(C)(C)C)cc(c1OC/C=C/c1ccccc1)Cc1cc(C(C#N)(OC/C=C\c3ccccc3)OC/C=C/c3ccccc3)cc(c1OC/C=C\c1ccccc1)C2` (stereo not given), the TGI was greater than 100 µM in experiment [1]; 49.3 µM in experiment [2]; greater than 100 µM in experiment [3]; greater than 100 µM in experiment [4]; greater than 100 µM in experiment [5]; greater than 100 µM in [6]. For the same compound, the TGI in experiment [7], in experiment [8], in experiment [9], in experiment [10], in [11] and in [12] was greater than 100 µM each time. The TGI in [13], in [14] and in [15] was greater than 100 µM in each case.
As for `C[n+]1ccc(/C2=C3\C=CC(=N3)/C(c3cc[n+](C)cc3)=c3/cc/c([nH]3)=C(\c3cc[n+](C)cc3)C3=N/C(=C(/c4cc[n+](C)cc4)C4C=CC2N4)C=C3)cc1`, the TGI was greater than 100 µM in [1]; greater than 32.9 µM in experiment [2]; greater than 100 µM in experiment [3]; greater than 100 µM in experiment [4]; greater than 100 µM in experiment [5]; greater than 100 µM in experiment [6]. For the same compound, the TGI in experiment [7], in experiment [8], in experiment [9], in experiment [10], in experiment [11] and in experiment [12] was greater than 100 µM in each case. The TGI in experiment [13], in experiment [14] and in experiment [15] was greater than 100 µM in each case.
For `CC(C)(C)OC(=O)N/N=C(/N)Cc1ccc(Cl)cc1`, the TGI in [1], in experiment [2], in experiment [3], in experiment [4], in experiment [5] and in experiment [6] was greater than 100 µM each time. Besides, the TGI in experiment [7], in experiment [8], in experiment [9], in experiment [10], in experiment [11] and in experiment [12] was greater than 100 µM each time. The TGI in experiment [13], in experiment [14] and in experiment [15] was greater than 100 µM throughout.
`COc1ccc(C(=O)/C=C/c2ccc(O)c(O)c2)c(OC)c1`: the TGI was found to be 14.1 µM in [1]; 6.54 µM in experiment [2]; 2.66 µM in [3]; 27.3 µM in experiment [4]; 19.4 µM in experiment [5]; 31 µM in experiment [6]. In addition, the TGI was greater than 100 µM in [7]; greater than 32 µM in experiment [8]; greater than 46.2 µM in experiment [9]; greater than 100 µM in experiment [10]; greater than 63.8 µM in experiment [11]; 0.74 µM in [12]. Also, the values for the TGI in [13], in experiment [14] and in [15] were 26.4 µM, greater than 100 µM and greater than 37.6 µM, respectively.
Take `CC1(/C=C/CCSc2ccccc2)CC(=O)C2CC1C2(C)C` (stereo not given): the TGI is greater than 100 µM in experiment [1]; 16.9 µM in experiment [2]; greater than 91.3 µM in [3]; greater than 100 µM in [4]; greater than 100 µM in [5]; greater than 100 µM in experiment [6]. Besides, the TGI is 53.5 µM in experiment [7]; 31 µM in [8]; greater than 100 µM in experiment [9]; greater than 100 µM in experiment [10]; greater than 100 µM in [11]; 52.3 µM in experiment [12]. The results for the TGI in experiment [13], in [14] and in [15] were 43.9 µM, greater than 100 µM and greater than 100 µM, respectively.
Regarding `COC(=O)[C@H](CCSC)NC(=O)N[C@H](C)c1ccccc1`, the TGI in experiment [1], in experiment [2], in experiment [3], in experiment [4], in experiment [5] and in experiment [6] was greater than 100 µM throughout. Further, the TGI in [7] is greater than 100 µM; in experiment [8], greater than 100 µM; in [9], greater than 100 µM; in experiment [10], greater than 100 µM; in [11] it was greater than 100 µM; in [12] it was 47.5 µM. For the same compound, the TGI in experiment [13], in experiment [14] and in [15] was greater than 100 µM in each case.
As to `O=C1C=CC2(C=C1)O[C@H](Cc1ccccc1)[C@@H](Cc1ccccc1)O2`, the TGI turned out to be 1.51 µM in experiment [1]; 3.26 µM in experiment [2]; 1.17 µM in experiment [3]; 5.44 µM in [4]; 6.47 µM in experiment [5]; 5.15 µM in [6]. For the same compound, the TGI in experiment [7] turned out to be 0.583 µM; in experiment [8], 0.585 µM; in [9], 0.66 µM; in [10], 2.42 µM; in experiment [11], 0.254 µM; in [12] it was 0.42 µM. Further, the TGI in experiment [13] stood at 0.824 µM; in experiment [14], 1.69 µM; in [15], 5.58 µM.
Take `N#Cc1sc2c(c1OC(=O)c1ccccc1)c(=O)n(-c1ccccc1)c(=S)n2-c1ccccc1`: the TGI in experiment [1] was 43.6 µM; in experiment [2], greater than 100 µM; in experiment [3], greater than 100 µM; in experiment [4] it was 59.2 µM; in experiment [5] it was greater than 100 µM; in [6], 70.3 µM. The TGI in experiment [7] was 45.7 µM; in experiment [8] it was 61.6 µM; in [9] it was 65.1 µM; in [10] it was 52.2 µM; in experiment [11] it was greater than 100 µM; in [12], 29.8 µM. Also, the TGI was 51.7 µM in experiment [13], 80.7 µM in experiment [14] and greater than 100 µM in [15].
With `NC(N)=NCCCC(NC(=O)c1cccc2c(=O)c3ccccc3[nH]c12)C(=O)O` (stereo not given), the TGI in experiment [1], in [2], in [3], in experiment [4], in experiment [5] and in experiment [6] was greater than 100 µM each time. For the same compound, the TGI in experiment [7], in experiment [8], in experiment [9], in experiment [10], in [11] and in [12] was greater than 100 µM throughout. For the same compound, the TGI in experiment [13], in experiment [14] and in experiment [15] was greater than 100 µM each time.
In the case of `CCN1C(=O)c2cc(OC)c(OC)cc2C(=O)C12OC(=O)c1cc3c(cc12)OCO3` (stereo not given), the TGI in [1], in experiment [2], in [3], in experiment [4], in experiment [5] and in experiment [6] was greater than 100 µM in each case. The TGI in experiment [7], in [8], in experiment [9], in [10], in experiment [11] and in experiment [12] was greater than 100 µM throughout. Also, the TGI in [13], in experiment [14] and in experiment [15] was greater than 100 µM throughout.
For the compound `O=C(CCCN1CCC2(CC1)CC(c1ccccc1)OC2=O)c1ccc(F)cc1` (stereo not given), the TGI in experiment [1] was greater than 100 µM; in experiment [2], 40.1 µM; in experiment [3], greater than 100 µM; in [4] it was greater than 100 µM; in experiment [5], greater than 100 µM; in [6] it was 60.9 µM. The TGI was greater than 100 µM in [7]; greater than 100 µM in [8]; greater than 100 µM in experiment [9]; 95.2 µM in [10]; greater than 100 µM in [11]; greater than 100 µM in experiment [12]. In addition, the TGI in experiment [13] was 45.1 µM; in [14], greater than 100 µM; in experiment [15], 65.8 µM.
In the case of `Oc1ccc(-c2cc(-c3cc(-c4ccc(O)cc4)no3)on2)cc1`, the TGI was greater than 100 µM in experiment [1]; greater than 31.6 µM in experiment [2]; greater than 100 µM in experiment [3]; greater than 100 µM in experiment [4]; greater than 100 µM in experiment [5]; greater than 100 µM in [6]. For the same compound, the TGI in [7], in experiment [8], in experiment [9], in [10], in [11] and in experiment [12] was greater than 100 µM throughout. Moreover, the TGI in experiment [13], in experiment [14] and in [15] was greater than 100 µM throughout.

Source of the values: PubChem BioAssay (NCI).
